The source made the active and inactive calls. The rule behind the calls is not given here.
How the values were obtained:
[1] = molecular target: Serine/threonine-protein kinase mTOR (Homo sapiens) (UniProt P42345); assay: Modulation of mTOR signaling pathway in human KMS-11 cells at 1 uM incubated for 48 hrs by RNA-Seq analysis; type: cell-based; conditions: filed as modulator
[2] = AUClast in ICR mouse at 3 mg/kg, po measured for 24 hrs by LC-MS/MS analysis; type: ADME, organism-based; design: dose 3 mg/kg, time 24 hrs, route po; conditions: in vivo
[3] = Observed clearance in ICR mouse at 1 mg/kg, iv measured for 24 hrs by LC-MS/MS analysis; type: ADME, organism-based; conditions: in vivo
[4] = Half life in ICR mouse at 3 mg/kg, po measured for 24 hrs by LC-MS/MS analysis; type: ADME, organism-based; conditions: in vivo
[5] = molecular target: Histone-lysine N-methyltransferase, H3 lysine-36 specific (Homo sapiens, UniProt Q96L73); assay: Inhibition of NSD1 (unknown origin)
[6] = molecular target: Histone-lysine N-methyltransferase EZH2 (Homo sapiens, UniProt Q15910); assay: Inhibition of EZH2 (unknown origin) using SAM as substrate preincubated for 10 mins followed by substrate addition and measured after 4 hrs by HTRF analysis
[7] = molecular target: Histone-lysine N-methyltransferase 2A (Homo sapiens, UniProt Q03164); assay: Inhibition of MLL1 (unknown origin) using SAM as substrate preincubated for 10 mins followed by substrate addition and measured after 4 hrs by HTRF analysis
[8] = molecular target: Histone-lysine N-methyltransferase 2D (Homo sapiens, UniProt O14686); assay: Inhibition of MLL2 (unknown origin) using SAM as substrate preincubated for 10 mins followed by substrate addition and measured after 4 hrs by HTRF analysis
[9] = test system: THP-1; assay: Antiproliferative activity against human THP-1 cells harboring wild type NSD2 assessed as inhibition of cell growth incubated for 6 days by CCK-8 assay; type: functional, cell-based; conditions: THP-1, 144 h
[10] = test system: U2932; assay: Antiproliferative activity against human U2932 cells assessed as inhibition of cell growth incubated for 6 days by CCK-8 assay; type: functional, cell-based; conditions: U2932, 144 h
[11] = Antiproliferative activity against human MINO cells assessed as inhibition of cell growth incubated for 6 days by CCK-8 assay; type: functional, cell-based; conditions: 144 h
[12] = test system: KMS-11; assay: Modulation of Hippo signaling pathway in human KMS-11 cells at 1 uM incubated for 48 hrs by RNA-Seq analysis; type: cell-based; conditions: filed as modulator
[13] = molecular target: Protransforming growth factor alpha (Homo sapiens) (UniProt P01135); assay: Inhibition of TGFA transcriptional activation in human KMS-11 cells assessed as reduction in TGFA mRNA expression at 0.5 uM by qRT-PCR analysis; type: cell-based
[14] = molecular target: Ras-related protein R-Ras2 (Homo sapiens) (UniProt P62070); assay: Inhibition of RRAS2 transcriptional activation in human KMS-11 cells assessed as reduction in RRAS2 mRNA expression at 0.5 uM by qRT-PCR analysis; type: cell-based
[15] = molecular target: Hepatocyte growth factor receptor (Homo sapiens) (UniProt P08581); assay: Inhibition of MET transcriptional activation in human KMS-11 cells assessed as reduction in MET mRNA expression at 0.5 uM by qRT-PCR analysis; type: cell-based
[16] = molecular target: Protransforming growth factor alpha (Homo sapiens) (UniProt P01135); assay: Inhibition of TGFA transcriptional activation in human KMS-11 cells assessed as reduction in H3K36me2 level in promoter region by ChIP-qPCR analysis; type: cell-based
[17] = molecular target: Hepatocyte growth factor receptor (Homo sapiens) (UniProt P08581); assay: Inhibition of MET transcriptional activation in human KMS-11 cells assessed as reduction in H3K36me2 level in promoter region by ChIP-qPCR analysis; type: cell-based
[18] = test system: KMS-11; assay: Induction of apoptosis in human KMS-11 cells assessed as late apoptotic cells at 0.2 uM incubated for 72 hrs by Annexin V-FITC/PI staining based flow cytometry analysis (reference value: 6.47%); type: functional
[19] = test system: KMS-11; assay: Induction of apoptosis in human KMS-11 cells assessed as dead cells at 0.2 uM incubated for 72 hrs by Annexin V-FITC/PI staining based flow cytometry analysis (reference value: 6.48%); type: functional
[20] = test system: KMS-11; assay: Induction of apoptosis in human KMS-11 cells assessed as live cells at 0.5 uM incubated for 72 hrs by Annexin V-FITC/PI staining based flow cytometry analysis (reference value: 83.1%); type: functional
[21] = test system: KMS-11; assay: Induction of apoptosis in human KMS-11 cells assessed as early apoptotic cells at 0.5 uM incubated for 72 hrs by Annexin V-FITC/PI staining based flow cytometry analysis (reference value: 3.96%); type: functional
[22] = test system: KMS-11; assay: Induction of apoptosis in human KMS-11 cells assessed as late apoptotic cells at 0.5 uM incubated for 72 hrs by Annexin V-FITC/PI staining based flow cytometry analysis (reference value: 6.47%); type: functional
[23] = test system: KMS-11; assay: Induction of apoptosis in human KMS-11 cells assessed as dead cells at 0.5 uM incubated for 72 hrs by Annexin V-FITC/PI staining based flow cytometry analysis (reference value: 6.48%); type: functional
[24] = test system: KMS-11; assay: Induction of apoptosis in human KMS-11 cells assessed as live cells at 0.8 uM incubated for 72 hrs by Annexin V-FITC/PI staining based flow cytometry analysis (reference value: 83.1%); type: functional
[25] = test system: KMS-11; assay: Induction of apoptosis in human KMS-11 cells assessed as late apoptotic cells at 0.8 uM incubated for 72 hrs by Annexin V-FITC/PI staining based flow cytometry analysis (reference value: 6.47%); type: functional
[26] = test system: KMS-11; assay: Induction of apoptosis in human KMS-11 cells assessed as upregulation of BID protein expression at 0.2 to 0.8 uM by Western blot analysis; type: functional, cell-based; conditions: dose 0.2-0.8 µM
[27] = test system: KMS-11; assay: Induction of apoptosis in human KMS-11 cells assessed as upregulation of BIM protein expression at 0.2 to 0.8 uM by Western blot analysis; type: functional, cell-based; conditions: dose 0.2-0.8 µM

Sequence of Protransforming growth factor alpha (Homo sapiens) (P01135 whole entry): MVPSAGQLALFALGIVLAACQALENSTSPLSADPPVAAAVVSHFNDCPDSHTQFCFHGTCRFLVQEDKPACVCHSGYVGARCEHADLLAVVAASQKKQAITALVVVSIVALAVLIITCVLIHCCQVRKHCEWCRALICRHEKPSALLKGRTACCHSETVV
Sequence of Hepatocyte growth factor receptor (Homo sapiens) (P08581 whole entry): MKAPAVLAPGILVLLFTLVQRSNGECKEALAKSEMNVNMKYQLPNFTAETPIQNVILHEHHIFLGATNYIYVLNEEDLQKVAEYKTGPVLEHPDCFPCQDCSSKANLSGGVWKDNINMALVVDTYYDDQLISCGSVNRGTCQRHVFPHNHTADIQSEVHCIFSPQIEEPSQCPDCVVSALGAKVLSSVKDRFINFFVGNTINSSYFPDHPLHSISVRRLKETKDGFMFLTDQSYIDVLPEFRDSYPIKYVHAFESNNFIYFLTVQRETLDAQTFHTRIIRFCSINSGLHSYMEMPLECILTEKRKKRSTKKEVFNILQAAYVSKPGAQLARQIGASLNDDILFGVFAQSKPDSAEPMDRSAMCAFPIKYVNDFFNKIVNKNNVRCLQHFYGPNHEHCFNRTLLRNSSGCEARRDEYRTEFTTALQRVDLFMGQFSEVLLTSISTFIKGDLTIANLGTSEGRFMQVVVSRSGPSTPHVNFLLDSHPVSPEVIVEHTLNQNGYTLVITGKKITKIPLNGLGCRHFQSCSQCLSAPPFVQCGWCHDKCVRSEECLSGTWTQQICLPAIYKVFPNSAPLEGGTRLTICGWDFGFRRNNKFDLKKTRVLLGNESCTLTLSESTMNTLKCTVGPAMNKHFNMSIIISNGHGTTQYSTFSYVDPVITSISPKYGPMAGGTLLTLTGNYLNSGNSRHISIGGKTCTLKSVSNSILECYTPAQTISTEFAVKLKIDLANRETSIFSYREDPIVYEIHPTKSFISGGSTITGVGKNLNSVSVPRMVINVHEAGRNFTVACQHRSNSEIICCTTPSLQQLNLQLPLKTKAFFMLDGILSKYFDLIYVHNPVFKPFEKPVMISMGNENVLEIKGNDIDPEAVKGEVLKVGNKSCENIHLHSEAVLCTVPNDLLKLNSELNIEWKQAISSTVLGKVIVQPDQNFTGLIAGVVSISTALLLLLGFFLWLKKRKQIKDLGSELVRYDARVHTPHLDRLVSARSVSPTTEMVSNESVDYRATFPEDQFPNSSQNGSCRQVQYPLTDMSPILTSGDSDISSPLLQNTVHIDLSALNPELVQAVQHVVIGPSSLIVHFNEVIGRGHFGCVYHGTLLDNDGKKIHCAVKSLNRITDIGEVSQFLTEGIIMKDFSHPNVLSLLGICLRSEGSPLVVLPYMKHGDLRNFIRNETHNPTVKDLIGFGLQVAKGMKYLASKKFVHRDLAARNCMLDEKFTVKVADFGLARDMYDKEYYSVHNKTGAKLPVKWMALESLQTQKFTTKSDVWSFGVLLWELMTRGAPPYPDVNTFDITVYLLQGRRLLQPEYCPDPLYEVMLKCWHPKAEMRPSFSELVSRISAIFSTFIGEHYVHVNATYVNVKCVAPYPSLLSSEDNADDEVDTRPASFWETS
Sequence of Histone-lysine N-methyltransferase, H3 lysine-36 specific (Q96L73 whole entry): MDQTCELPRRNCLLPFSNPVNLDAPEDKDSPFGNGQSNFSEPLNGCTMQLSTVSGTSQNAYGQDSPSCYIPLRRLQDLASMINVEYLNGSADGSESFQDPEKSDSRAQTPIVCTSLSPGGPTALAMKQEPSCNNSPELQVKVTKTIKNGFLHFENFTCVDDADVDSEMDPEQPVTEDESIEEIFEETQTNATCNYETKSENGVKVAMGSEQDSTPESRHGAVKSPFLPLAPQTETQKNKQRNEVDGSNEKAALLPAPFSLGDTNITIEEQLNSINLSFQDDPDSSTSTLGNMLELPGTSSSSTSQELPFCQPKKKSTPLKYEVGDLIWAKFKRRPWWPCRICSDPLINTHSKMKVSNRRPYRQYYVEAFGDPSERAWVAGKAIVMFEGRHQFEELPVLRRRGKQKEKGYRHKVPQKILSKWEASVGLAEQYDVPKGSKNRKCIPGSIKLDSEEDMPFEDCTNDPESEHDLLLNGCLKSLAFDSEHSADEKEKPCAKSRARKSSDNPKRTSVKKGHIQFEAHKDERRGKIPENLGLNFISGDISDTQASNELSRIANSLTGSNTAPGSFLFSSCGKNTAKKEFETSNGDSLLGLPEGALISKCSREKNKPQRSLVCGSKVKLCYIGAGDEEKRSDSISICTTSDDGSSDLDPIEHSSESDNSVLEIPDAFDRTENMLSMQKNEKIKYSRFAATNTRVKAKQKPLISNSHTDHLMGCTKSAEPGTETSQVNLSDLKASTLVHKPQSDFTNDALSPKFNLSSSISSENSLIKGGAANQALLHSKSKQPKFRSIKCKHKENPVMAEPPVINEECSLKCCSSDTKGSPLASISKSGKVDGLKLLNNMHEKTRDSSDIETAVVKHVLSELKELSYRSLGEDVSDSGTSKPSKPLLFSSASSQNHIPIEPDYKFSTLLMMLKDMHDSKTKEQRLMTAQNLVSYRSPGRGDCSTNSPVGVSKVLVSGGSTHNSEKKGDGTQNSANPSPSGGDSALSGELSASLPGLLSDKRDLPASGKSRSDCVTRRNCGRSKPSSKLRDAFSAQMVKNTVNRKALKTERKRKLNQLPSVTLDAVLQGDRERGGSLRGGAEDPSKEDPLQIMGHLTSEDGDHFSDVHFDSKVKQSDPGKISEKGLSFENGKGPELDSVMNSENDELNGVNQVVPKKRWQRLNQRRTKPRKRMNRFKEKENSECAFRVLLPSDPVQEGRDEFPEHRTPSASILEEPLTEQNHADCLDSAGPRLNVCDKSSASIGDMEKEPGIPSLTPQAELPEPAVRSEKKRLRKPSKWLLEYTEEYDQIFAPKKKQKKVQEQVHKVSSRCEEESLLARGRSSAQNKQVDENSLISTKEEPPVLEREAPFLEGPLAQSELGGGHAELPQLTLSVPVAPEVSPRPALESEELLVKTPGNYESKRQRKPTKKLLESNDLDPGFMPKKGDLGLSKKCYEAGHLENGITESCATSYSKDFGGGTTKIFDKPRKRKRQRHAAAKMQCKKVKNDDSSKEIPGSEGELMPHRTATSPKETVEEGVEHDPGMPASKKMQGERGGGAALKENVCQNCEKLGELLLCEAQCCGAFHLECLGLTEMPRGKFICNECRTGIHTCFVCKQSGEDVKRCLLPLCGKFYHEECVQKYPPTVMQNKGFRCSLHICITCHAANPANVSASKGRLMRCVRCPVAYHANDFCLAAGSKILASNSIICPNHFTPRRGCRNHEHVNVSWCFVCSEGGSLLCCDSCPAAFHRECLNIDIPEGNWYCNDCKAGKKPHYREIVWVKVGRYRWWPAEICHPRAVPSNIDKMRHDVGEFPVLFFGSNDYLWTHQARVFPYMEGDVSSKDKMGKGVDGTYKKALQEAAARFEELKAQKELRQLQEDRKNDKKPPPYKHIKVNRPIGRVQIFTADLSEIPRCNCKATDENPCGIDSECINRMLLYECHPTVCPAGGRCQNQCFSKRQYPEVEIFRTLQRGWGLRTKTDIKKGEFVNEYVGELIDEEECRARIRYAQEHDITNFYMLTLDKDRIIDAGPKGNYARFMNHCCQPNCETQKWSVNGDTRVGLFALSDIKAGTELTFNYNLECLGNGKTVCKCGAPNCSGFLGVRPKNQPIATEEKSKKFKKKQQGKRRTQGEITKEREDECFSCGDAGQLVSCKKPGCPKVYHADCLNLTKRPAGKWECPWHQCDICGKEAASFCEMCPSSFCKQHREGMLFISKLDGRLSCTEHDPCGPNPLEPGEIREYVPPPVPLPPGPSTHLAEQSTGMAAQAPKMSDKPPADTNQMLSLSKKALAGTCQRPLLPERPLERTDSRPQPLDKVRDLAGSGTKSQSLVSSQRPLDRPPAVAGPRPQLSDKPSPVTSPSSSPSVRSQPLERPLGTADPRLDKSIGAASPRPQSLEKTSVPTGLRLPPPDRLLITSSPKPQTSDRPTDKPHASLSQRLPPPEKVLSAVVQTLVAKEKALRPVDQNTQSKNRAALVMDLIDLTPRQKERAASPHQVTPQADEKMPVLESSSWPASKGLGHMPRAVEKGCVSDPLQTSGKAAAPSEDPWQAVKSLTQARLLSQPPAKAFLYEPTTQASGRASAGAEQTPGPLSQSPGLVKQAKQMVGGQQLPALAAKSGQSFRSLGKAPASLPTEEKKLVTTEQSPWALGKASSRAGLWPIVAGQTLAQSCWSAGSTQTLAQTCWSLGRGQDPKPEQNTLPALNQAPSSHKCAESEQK
Sequence of Ras-related protein R-Ras2 (Homo sapiens) (P62070 whole entry): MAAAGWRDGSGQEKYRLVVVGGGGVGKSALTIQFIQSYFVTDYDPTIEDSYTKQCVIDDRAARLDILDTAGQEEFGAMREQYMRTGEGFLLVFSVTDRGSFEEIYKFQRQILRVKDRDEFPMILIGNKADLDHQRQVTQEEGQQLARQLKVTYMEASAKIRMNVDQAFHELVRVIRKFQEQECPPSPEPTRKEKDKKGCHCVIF

## CC#CC(=O)NC12CC(NC3=C(Cl)C(=O)c4ncccc4C3=O)(C1)C2
[1]
  Activity: Active
[2]
  AUC(0-t) at 24 h: 42700 ng·h/mL
[3]
  clearance: 3.8 mL/min/kg
[4]
  half-life: 6.71 h
[5]
  IC50: 0.69 µM
[6]
  IC50: 0.25 µM
[7]
  IC50: > 10 µM
[8]
  IC50: > 10 µM
[9]
  IC50: 2.64 µM
[10]
  IC50: 9.11 µM
[11]
  IC50: 9.9 µM
[12]
  Activity: Active
[13]
  inhibition: Active
[14]
  inhibition: Active
[15]
  inhibition: Active
[16]
  inhibition: Active
[17]
  inhibition: Active
[18]
  Activity: 7.79%
[19]
  Activity: 6.54%
[20]
  Activity: 63.8%
[21]
  Activity: 14.1%
[22]
  Activity: 15.7%
[23]
  Activity: 6.33%
[24]
  Activity: 55%
[25]
  Activity: 19.7%
[26]
  Activity: Active
[27]
  Activity: Active
